Read-outs that look alike come from different tables or passages of the source.
Legend:
[1] = Saturation solubility in water; type: physicochemical
[2] = cited from earlier work

Row | SMILES | Solubility in water under substantially physiological conditions ([1]; pH 5 to 7) | solubility ([1]; water, process liquid temperature of 17° C.) [µg/mL] | Saturation solubility in water ([2]; 22° C.) [µg/mL] | Saturation solubility in water ([2]; 37° C.) [µg/mL]
1 | NS(=O)(=O)c1ccc(S(=O)(=O)Nc2cccc3c(Cl)c[nH]c23)cc1 [Drug A, N-(3-chloro-7-indolyl)-1,4-benzenedisulfonamide] | practically insoluble | ≤ 100 |  | 
2 | COc1ccc(Cl)cc1C(=O)NCCc1ccc(S(=O)(=O)NC(=O)NC2CCCCC2)cc1 [Glibenclamide] |  |  | 5.9 | 9.9

From patent US20080145431A1, “Medicinal Composition and Process for Producing the Same” (priority 2005, published 2008)
